Source: patent publication US8173131B2, “Compositions and methods for modulating RSV infection and immunity” (PerkinElmer Health Sciences, Inc., priority 2000, dated 2012)
Marks after values point to notes of the source that are not given here.

Test system: CD3+ BAL cells
Assay: Intracellular cytokine expression by CD3+ T cells following in vivo peptide treatment
Parameters: species or system BALB/c mice
Protocol: On day −1, prior to RSV infection, mice were i.p. treated (0.1 ml/mouse) with 100 μM of G glycoprotein peptides RT33 (CWAIC) (SEQ ID NO: 12), RT34 (lacks the CX3C motif) or peptides with changes in the CX3C motif (Δ+1, Δ−1, EYp1). Control mice were treated with PBS containing a similar dilution of DMSO used to solubilize the peptides.
Intracellular cytokine staining was modified for microculture staining as described (55, 57). Briefly, BAL cells were incubated in PBS containing Golgi Stop (Pharmingen) for 3 h at 37° C. to allow for accumulation of intracellular cytokines. The cells were washed in PBS containing 1% bovine serum albumin, blocked with 10% normal mouse sera diluted in PBS containing 1% bovine serum albumin, and stained (4° C., 30 min) with an appropriate dilution of anti-CD3 antibody, fixed and permeabilized in Cytofix/Cytoperm (Pharmingen). The cells were washed in Cytofix/Cytoperm buffer and stained (4° C., 30 min) with appropriate dilutions of anti-IL-2 (JES6-5H4), anti-IL-4 (BVD4-1D11), anti-IL-5 (TRFK5), IL-10 (JES3-16E3), anti-IFNγ (XMG1.2), or anti-TNFα (MP6-XT22) antibodies (Pharmingen) diluted in Cytofix/Cytoperm. Extra- and intracellular staining was analyzed by flow cytometry using a FACScan and Cell Quest software (Becton Dickinson, San Diego, Calif.). Total cytokine expression by CD3+ T cells was determined from the percent cytokine expression of CD3+ T cells and total number of cells recovered. The total number of CD3+ BAL cells expressing a particular cytokine was determined by multiplying the total number of BAL cells by the percent CD3+ cells expressing that particular cytokine.

[1] = day 3 pi, peptide 24 hours prior to RSV infection

Row | Sequence | Total IC cytokine Expressing CD3^+ BAL cells (×10^3) ± SEM: IFNγ (day 3 pi) | Total IC cytokine Expressing CD3^+ BAL cells (×10^3) ± SEM: IL-4 (day 3 pi) | Total IC cytokine Expressing CD3^+ BAL cells (×10^3) ± SEM: IL-5 (day 3 pi) | Total IC cytokine Expressing CD3^+ BAL cells (×10^3) ± SEM: IL-6 (day 3 pi) | Total IC cytokine Expressing CD3^+ BAL cells (×10^3) ± SEM: TNFα (day 3 pi) | Total IC cytokine Expressing CD3^+ BAL cells (×10^3) ± SEM: IL-2 [1] | Total IC cytokine Expressing CD3^+ BAL cells (×10^3) ± SEM: IFNγ (day 5 pi) | Total IC cytokine Expressing CD3^+ BAL cells (×10^3) ± SEM: IL-2 (day 5 pi) | Total IC cytokine Expressing CD3^+ BAL cells (×10^3) ± SEM: IL-4 (day 5 pi) | Total IC cytokine Expressing CD3^+ BAL cells (×10^3) ± SEM: IL-5 (day 5 pi) | Total IC cytokine Expressing CD3^+ BAL cells (×10^3) ± SEM: IL-6 (day 5 pi) | Total IC cytokine Expressing CD3^+ BAL cells (×10^3) ± SEM: TNFα (day 5 pi) | Total IC cytokine Expressing CD3^+ BAL cells (×10^3) ± SEM: IFNγ (day 7 pi) | Total IC cytokine Expressing CD3^+ BAL cells (×10^3) ± SEM: IL-2 (day 7 pi) | Total IC cytokine Expressing CD3^+ BAL cells (×10^3) ± SEM: IL-4 (day 7 pi) | Total IC cytokine Expressing CD3^+ BAL cells (×10^3) ± SEM: IL-5 (day 7 pi) | Total IC cytokine Expressing CD3^+ BAL cells (×10^3) ± SEM: IL-6 (day 7 pi) | Total IC cytokine Expressing CD3^+ BAL cells (×10^3) ± SEM: TNFα (day 7 pi) | Total IC cytokine Expressing CD3^+ BAL cells (×10^3) ± SEM: IFNγ (day 14 pi) | Total IC cytokine Expressing CD3^+ BAL cells (×10^3) ± SEM: IL-2 (day 14 pi) | other results
1 | NKKPGKKTTTKP [RT34] | 43 ± 9.4 ×10^3 | 43 ± 9.2 ×10^3 | 28 ± 8.0 ×10^3 | 47 ± 10 ×10^3 | 57 ± 12 ×10^3 | 40 ± 8.5 ×10^3 | 18 ± 2.6 ×10^3 | 19 ± 2.8 ×10^3 | 15 ± 2.2 ×10^3 | 24 ± 3.5 ×10^3 | 30 ± 4.4 ×10^3 | 27 ± 3.9 ×10^3 | 10 ± 3.5 ×10^3 | 7.7 ± 2.6 ×10^3 | 11 ± 3.6 ×10^3 | 8.7 ± 2.9 ×10^3 | 8.9 ± 3.0 ×10^3 | 31 ± 5.0 ×10^3 | 9.7 ± 1.5 ×10^3 | 5.4 ± 1.9 ×10^3 | Total IC cytokine Expressing CD3^+ BAL cells (×10^3) ± SEM: IL-4 (day 14 pi): 8.2 ± 1.3 ×10^3; Total IC cytokine Expressing CD3^+ BAL cells (×10^3) ± SEM: IL-5 (day 14 pi): 10 ± 1.7 ×10^3; Total IC cytokine Expressing CD3^+ BAL cells (×10^3) ± SEM: IL-6 (day 14 pi): 11 ± 1.7 ×10^3; Total IC cytokine Expressing CD3^+ BAL cells (×10^3) ± SEM: TNFα (day 14 pi): 10 ± 1.6 ×10^3
2 | TCWACKRIPNK (TCWAIACKRIPNK) [Δ − 1] | 47 ± 15 ×10^3 | 47 ± 15 ×10^3 | 49 ± 16 ×10^3 | 51 ± 17 ×10^3 | 55 ± 17 ×10^3 | 46 ± 15 ×10^3 | 10 ± 1.6 ×10^3 | 11 ± 1.7 ×10^3 | 13 ± 1.9 ×10^3 | 15 ± 2.2 ×10^3 | 13 ± 2.0 ×10^3 | 18 ± 2.7 ×10^3 | 4.7 ± 0.7 ×10^3 | 3.5 ± 0.5 ×10^3 | 2.8 ± 0.4 ×10^3 | 4.2 ± 0.6 ×10^3 | 6.3 ± 1.0 ×10^3 | 12 ± 0.7 ×10^3 | 10 ± 1.2 ×10^3 | 8.7 ± 1.0 ×10^3 | Total IC cytokine Expressing CD3^+ BAL cells (×10^3) ± SEM: IL-4 (day 14 pi): 12 ± 1.4 ×10^3; Total IC cytokine Expressing CD3^+ BAL cells (×10^3) ± SEM: IL-5 (day 14 pi): 14 ± 1.7 ×10^3; Total IC cytokine Expressing CD3^+ BAL cells (×10^3) ± SEM: IL-6 (day 14 pi): 13 ± 1.6 ×10^3; Total IC cytokine Expressing CD3^+ BAL cells (×10^3) ± SEM: TNFα (day 14 pi): 11 ± 1.4 ×10^3
3 | TCWAIACKRIPNK [Δ + 1] | 18 ± 2.2 ×10^3 | 18 ± 2.3 ×10^3 | 23 ± 2.9 ×10^3 | 21 ± 2.8 ×10^3 | 19 ± 2.5 ×10^3 | 15 ± 2.0 ×10^3 | 17 ± 5.3 ×10^3 | 16 ± 5.1 ×10^3 | 20 ± 6.2 ×10^3 | 23 ± 7.2 ×10^3 | 21 ± 6.5 ×10^3 | 21 ± 6.8 ×10^3 | 5.6 ± 1.6 ×10^3 | 7.5 ± 2.2 ×10^3 | 5.8 ± 1.7 ×10^3 | 9.9 ± 2.9 ×10^3 | 11 ± 3.3 ×10^3 | 15 ± 2.9 ×10^3 | 11 ± 3.5 ×10^3 | 10 ± 3.2 ×10^3 | Total IC cytokine Expressing CD3^+ BAL cells (×10^3) ± SEM: IL-4 (day 14 pi): 14 ± 4.2 ×10^3; Total IC cytokine Expressing CD3^+ BAL cells (×10^3) ± SEM: IL-5 (day 14 pi): 16 ± 4.9 ×10^3; Total IC cytokine Expressing CD3^+ BAL cells (×10^3) ± SEM: IL-6 (day 14 pi): 12 ± 3.7 ×10^3; Total IC cytokine Expressing CD3^+ BAL cells (×10^3) ± SEM: TNFα (day 14 pi): 15 ± 4.7 ×10^3
4 | TCWAICKRIPNK [RT33] | 24 ± 5.6 ×10^3 | 24 ± 6.0 ×10^3 | 22 ± 5.6 ×10^3 | 27 ± 6.8 ×10^3 | 28 ± 7.0 ×10^3 | 26 ± 6.5^c ×10^3 | 8.0 ± 1.0 ×10^3 | 9.0 ± 1.1 ×10^3 | 11 ± 1.3 ×10^3 | 12 ± 1.5 ×10^3 | 9.0 ± 1.2 ×10^3 | 9.0 ± 1.1 ×10^3 | 3.6 ± 0.5 ×10^3 | 2.4 ± 0.3 ×10^3 | 2.3 ± 0.3 ×10^3 | 5.2 ± 0.7 ×10^3 | 5.8 ± 0.8 ×10^3 | 13 ± 0.8 ×10^3 | 6.5 ± 2.1 ×10^3 | 3.0 ± 1.0 ×10^3 | Total IC cytokine Expressing CD3^+ BAL cells (×10^3) ± SEM: IL-4 (day 14 pi): 8.2 ± 2.7 ×10^3; Total IC cytokine Expressing CD3^+ BAL cells (×10^3) ± SEM: IL-5 (day 14 pi): 5.3 ± 1.7 ×10^3; Total IC cytokine Expressing CD3^+ BAL cells (×10^3) ± SEM: IL-6 (day 14 pi): 4.7 ± 1.5 ×10^3; Total IC cytokine Expressing CD3^+ BAL cells (×10^3) ± SEM: TNFα (day 14 pi): 8.7 ± 2.6 ×10^3
